In patent US10752587B2, “Homobispiperidinyl derivatives as liver X receptor beta agonists, compositions and their use” (Merck Sharp & Dohme Corp., priority 2015, dated 2020):

Tests used:
[1] = biological target: T1, glutathione-S-transferase (GST) tagged LXRbeta LBD (ligand binding domain) (Homo sapiens, UniProt P55055); assay: LanthaScreen TR-FRET Liver X Receptor Coactivator Assay, co-activator recruitment to LXRbeta LBD; type: biochemical; conditions: for Emax: read-out: LXR beta Activity @ max dose (%); for EC50: potency (Inflection Point, IP), co-activator recruitment to LXRbeta LBD, in relation to T0901317, read-out: LXR beta IP
T1 construct: purchased Invitrogen pv4658.pps
T1 sequence (P55055 222-460 limits assumed): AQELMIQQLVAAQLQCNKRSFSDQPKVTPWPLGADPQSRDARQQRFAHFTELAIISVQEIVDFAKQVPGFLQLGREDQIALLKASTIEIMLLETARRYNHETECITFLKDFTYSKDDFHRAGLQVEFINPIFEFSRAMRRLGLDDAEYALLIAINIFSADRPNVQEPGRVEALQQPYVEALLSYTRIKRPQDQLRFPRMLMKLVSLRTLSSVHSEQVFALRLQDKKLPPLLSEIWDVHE
Procedure: (§1) Potency (Inflection Point, IP) and efficacy (Emax) are evaluated via compound-induced co-activator recruitment to glutathione-S-transferase (GST) tagged LXRbeta and LXRalpha LBD (ligand binding domain) proteins in relation to reference dual agonist compound T0901317 (N-(2,2,2-Trifluoroethyl)-N-[4-[2,2,2-trifluoro-1-hydroxy-1-(trifluoromethyl)ethyl] phenyl] benzenesulfonamide) using the LanthaScreen™ TR-FRET Liver X Receptor Coactivator Assays according to manufacturer's instructions (Invitrogen catalog number pv4658.pps and pv4655). While running the LanthaScreen™ TR-FRET Liver X Receptor Coactivator Assay, LXR alpha-LBD or LXR beta-LBD was added to ligand test compounds followed by addition of a mixture of a fluorescein-labelled coactivator peptide and terbium-conjugated anti-GST antibody. After an incubation period at room temperature, TR-FRET (time-resolved fluorescence resonance energy transfer) was measured using a filter-based instrument capable of TR-FRET, e.g. PerkinElmer Envision.

[2] = biological target: T2, glutathione-S-transferase (GST) tagged LXRalpha LBD (ligand binding domain) (Homo sapiens, UniProt Q13133); assay: LanthaScreen TR-FRET Liver X Receptor Coactivator Assay, co-activator recruitment to LXRalpha LBD; type: biochemical; conditions: for Emax: read-out: LXR alpha Activity @ max dose (%); for EC50 / LXR alpha IP (nM): potency (Inflection Point, IP), co-activator recruitment to LXRalpha LBD, in relation to T0901317; for EC50: read-out: LXR alpha IP
T2 construct: purchased Invitrogen pv4655
T2 sequence (Q13133 209-447 limits assumed): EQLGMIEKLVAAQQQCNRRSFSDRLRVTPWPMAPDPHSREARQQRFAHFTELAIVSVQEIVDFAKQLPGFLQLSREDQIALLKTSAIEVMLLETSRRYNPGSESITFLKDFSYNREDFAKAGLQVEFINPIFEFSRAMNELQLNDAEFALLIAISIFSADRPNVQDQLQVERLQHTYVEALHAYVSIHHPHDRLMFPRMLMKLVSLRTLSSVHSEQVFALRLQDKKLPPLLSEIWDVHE
Procedure: as §1

[3] = efficacy at max dose, in relation to reference dual agonist T0901317

| Compound | Emax [1, 3] [%] | EC50 [1] [nM] | Emax [2, 3] [%] | EC50 [2] [nM] | LXR alpha IP (nM) [2] | LXR beta Activity @ max dose (%) [1, 3] [%] | LXR alpha Activity @ max dose (%) [2, 3] [%] |
| --- | --- | --- | --- | --- | --- | --- | --- |
| CC(C)C(O)(C(=O)N1CCC(CC2CCN(c3ccc(C(=O)N(C)C)c(Cl)c3)CC2)CC1)C(F)(F)F (stereo not shown) [Example 2-31, 2-chloro-4-[4-({1-[2-hydroxy-3-methyl-2-(trifluoro-methyl)butanoyl]piperidin-4-yl}methyl)piperidin-1-yl]-N,N-dimethyl-benzamide] | 74 | 784 | 24 | 4450 |  |  |  |
| CCC(O)(C(=O)N1CCC(CC2CCN(c3ccc(C(=O)N(C)C)c(Cl)c3)CC2)CC1)c1ccccc1 (stereo not shown) [Example 2-32, 2-chloro-4-(4-{[1-(2-hydroxy-2-phenyl-butanoyl)piperidin-4-yl]methyl}piperidin-1-yl)-N,N-dimethyl-benzamide] | 55 | 72 | 19 | 1420 |  |  |  |
| CN(C)C(=O)c1ccc(N2CCC(CC3CCN(C(=O)[C@@](O)(c4cccc(C(F)(F)F)c4)C(F)(F)F)CC3)CC2)cc1Cl [Example 2-33, 2-chloro-N,N-dimethyl-4-{4-[(1-{(2S)-3,3,3-trifluoro-2-hydroxy-2-[3-(trifluoromethyl)phenyl]propanoyl}piperidin-4-yl)methyl]piperidin-1-yl}benzamide] | 75 | 722 | 5 |  | NO IP |  |  |
| COc1cccc([C@@](O)(C(=O)N2CCC(CC3CCN(c4ccc(C(=O)N(C)C)c(Cl)c4)CC3)CC2)C(F)(F)F)c1 [Example 2-35, 2-chloro-N,N-dimethyl-4-[4-({1-[(2R)-3,3,3-trifluoro-2-hydroxy-2-(3-methoxyphenyl)propanoyl]piperidin-4-yl}methyl)piperidin-1-yl]benzamide] | 44 | 8 | 6 |  | NO IP |  |  |
| CN(C)C(=O)c1ccc(N2CCC(CC3CCN(C(=O)C(O)(Cc4ccccc4)C(F)(F)F)CC3)CC2)cc1Cl (stereo not shown) [Example 2-36, 4-(4-{[1-(2-benzyl-3,3,3-trifluoro-2-hydroxy-propanoyl)piperidin-4-yl]methyl}piperidin-1-yl)-2-chloro-N,N-dimethyl-benzamide] | 126 | 110 | 43 | 1060 |  |  |  |
| CN(C)C(=O)c1ccc(N2CCC(CC3CCN(C(=O)C(O)(c4cccs4)C(F)(F)F)CC3)CC2)cc1Cl (stereo not shown) [Example 2-37, 2-chloro-N,N-dimethyl-4-(4-{[1-(3,3,3-trifluoro-2-hydroxy-2-thiophen-2-ylpropanoyl)piperidin-4-yl]methyl}piperidin-1-yl)benzamide] | 73 | 29 | 33 | 620 |  |  |  |
| Cc1ccsc1C(O)(C(=O)N1CCC(CC2CCN(c3ccc(C(=O)N(C)C)c(Cl)c3)CC2)CC1)C(F)(F)F (stereo not shown) [Example 2-38, 2-chloro-N,N-dimethyl-4-[4-({1-[3,3,3-trifluoro-2-hydroxy-2-(3-methyl-thiophen-2-yl)propanoyl]piperidin-4-yl}methyl)piperidin-1-yl]benzamide] | 67 | 49 | 15 | 575 |  |  |  |
| CCc1cccc(C(O)(C(=O)N2CCC(CC3CCN(c4ccc(C(=O)N(C)C)c(Cl)c4)CC3)CC2)C(F)(F)F)c1 (stereo not shown) [Example 2-39, 2-chloro-4-[4-({1-[2-(3-ethylphenyl)-3,3,3-trifluoro-2-hydroxy-propanoyl]piperidin-4-yl}methyl)piperidin-1-yl]-N,N-dimethyl-benzamide] | 30 | 36 | 2 | 1780 |  |  |  |
| CN(C)C(=O)c1ccc(N2CCC(CC3CCN(C(=O)C(O)(c4ccnc(C(F)(F)F)c4)C(F)(F)F)CC3)CC2)cc1Cl (stereo not shown) [Example 2-40, 2-chloro-N,N-dimethyl-4-{4-[(1-{3,3,3-trifluoro-2-hydroxy-2-[2-(trifluoromethyl)pyridin-4-yl]propanoyl}piperidin-4-yl)methyl]piperidin-1-yl}benzamide] | 34 | 72 | 9 |  | NO IP |  |  |
| COc1cccc(C(O)(C(=O)N2CCC(CC3CCN(c4ccc(C(=O)N(C)C)c(Cl)c4)CC3)CC2)C(F)(F)F)c1F (stereo not shown) [Example 2-41, 2-chloro-N,N-dimethyl-4-[4-({1-[3,3,3-trifluoro-2-(2-fluoro-3-methoxyphenyl)-2-hydroxy-propanoyl]piperidin-4-yl}methyl)piperidin-1-yl]benzamide] | 63 | 14 | 10 |  | NO IP |  |  |
| Cc1cc(F)cc(C(O)(C(=O)N2CCC(CC3CCN(c4ccc(C(=O)N(C)C)c(Cl)c4)CC3)CC2)C(F)(F)F)c1 (stereo not shown) [Example 2-42, 2-chloro-N,N-dimethyl-4-[4-({1-[3,3,3-trifluoro-2-(3-fluoro-5-methylphenyl)-2-hydroxy-propanoyl]piperidin-4-yl}methyl)piperidin-1-yl]benzamide] | 76 | 12 | 25 | 162 |  |  |  |
| CN(C)C(=O)c1ccc(N2CCC(CC3CCN(C(=O)[C@](O)(c4ccccc4)C(F)(F)F)CC3)CC2)cc1Cl [Example 2-43, 2-chloro-N,N-dimethyl-4-[4-({1-[(2R)-3,3,3-trifluoro-2-hydroxy-2-phenyl-propanoyl]piperidin-4-yl}methyl)piperidin-1-yl]benzamide] |  |  |  |  |  | 75 | 16 |
| CN(C)C(=O)c1ccc(N2CCC(CC3(C)CCN(C(=O)[C@](O)(c4ccccc4)C(F)(F)F)CC3)CC2)cc1Cl [Example 2-44, 2-chloro-N,N-dimethyl-4-[4-({4-methyl-1-[(2R)-3,3,3-trifluoro-2-hydroxy-2-phenyl-propanoyl]piperidin-4-yl}methyl)piperidin-1-yl]benzamide] | 37 | 1 | 20 | 32 |  |  |  |
| COc1cccc([C@@](O)(C(=O)N2CCC(C)(CC3CCN(c4ccc(C(=O)N(C)C)c(Cl)c4)CC3)CC2)C(F)(F)F)c1 [Example 2-45, 2-chloro-N,N-dimethyl-4-[4-({4-methyl-1-[(2R)-3,3,3-trifluoro-2-hydroxy-2-(3-methoxyphenyl)propanoyl]piperidin-4-yl}methyl)piperidin-1-yl]benzamide] | 18 | 7 | 0 |  | NO IP |  |  |
| CN(C)C(=O)c1ccc(N2CCC(OC3CCN(C(=O)[C@](O)(c4cc(Cl)cc(Cl)c4)C(F)(F)F)CC3)CC2)cc1Cl [Example 2-46, 2-chloro-4-[4-({1-[(2R)-2-(3,5-dichloro-phenyl)-3,3,3-trifluoro-2-hydroxy-propanoyl]piperidin-4-yl}oxy)piperidin-1-yl]-N,N-dimethyl-benzamide] | 102 | 9 | 31 | 216 |  |  |  |
| CN(C)C(=O)c1ccc(N2CCC(CC3(C)CCN(C(=O)[C@](O)(c4cccc(Cl)c4)C(F)(F)F)CC3)CC2)cc1Cl [Example 2-47, 2-chloro-4-[4-({1-[(2R)-2-(3-chloro-phenyl)-3,3,3-trifluoro-2-hydroxy-propanoyl]-4-methyl-piperidin-4-yl}methyl)piperidin-1-yl]-N,N-dimethyl-benzamide] | 49 | 4 | 7 |  | NO IP |  |  |
| COc1cc(Cl)cc([C@@](O)(C(=O)N2CCC(C)(CC3CCN(c4ccc(C(=O)N(C)C)c(Cl)c4)CC3)CC2)C(F)(F)F)c1 [Example 2-48, 2-chloro-4-[4-({1-[(2R)-2-(3-chloro-5-methoxyphenyl)-3,3,3-trifluoro-2-hydroxy-propanoyl]-4-methyl-piperidin-4-yl}methyl)piperidin-1-yl]-N,N-dimethyl-benzamide] | 30 | 27 | 0 |  | NO IP |  |  |
| COc1cc(F)cc([C@@](O)(C(=O)N2CCC(C)(CC3CCN(c4ccc(C(=O)N(C)C)c(Cl)c4)CC3)CC2)C(F)(F)F)c1 [Example 2-49, 2-chloro-N,N-dimethyl-4-[4-({4-methyl-1-[(2R)-3,3,3-trifluoro-2-(3-fluoro-5-methoxyphenyl)-2-hydroxy-propanoyl]piperidin-4-yl}methyl)piperidin-1-yl]benzamide] | 59 | 6 | 5 |  | NO IP |  |  |
